Measurements published in patent US7205004B2, “Herbal composition for treatment of neuronal injuries and neuronal degeneration, methods to prepare the same and uses thereof” (priority 2000, dated 2007).

Assays:
Type in all cases: in vivo
mice [1] = assay: Effects on the weight of immune organs; conditions: mice n = 15, 7 days; Bu-Nao-Gao 4 g/Kg orally, hydrocortisone 50 mg/Kg intramuscularly
Protocol: Mice were randomly distributed, and were given Bu-Nao-Gao (4 g/Kg) orally, or hydrocortison (50 mg/Kg) or saline intramuscularly, for seven days. 24 hours after the last administration, mice were sacrificed.

mice [2] = assay: Effects on antibody production in mice (sheep erythrocyte immunization); conditions: mice n = 15, immunized with 10% sheep erythrocytes day 2, measured day 8; Bu-Nao-Gao 4 g/Kg orally, hydrocortisone 50 mg/Kg i.m., 7 days
Protocol: Mice were randomly distributed, and were given Bu-Nao-Gao (4 g/Kg) orally, or hydrocortison (50 mg/Kg) or saline intramuscularly, for seven days. On day 2, they were immunized with 10% sheep erythrocytes intra-peritoneally. On day 8, erythrocyte agglutination as well as cell lysis were measured respectively.

mice [3] = conditions: mice n = 15; Bu-Nao-Gao oral 4 g/Kg daily, cyclophosphomide 0.03 g/kg i.m. every other day
Protocol: Mice were given Bu-Nao-Gao (oral at 4 g/Kg daily), or cyclophosphomide (0.03 g/kg, intramuscularly every other day) or saline (oral, daily). On day 3, mice were given 0.02 ml of 7% DNCB subcutaneously on the back, and were boosted three days later in the same way. 9 days later, 0.02 ml of 1% DNCB was applied to the left ear. This area was removed by a ear puncher of 9 mm diameter and the extent of ear swelling represents the extent of delayed-type hypersensitivity (for results, see Table 6).

C[C@]12CCC(=O)C=C1CC[C@@H]1[C@@H]2[C@@H](O)C[C@@]2(C)[C@H]1CC[C@]2(O)C(=O)CO [Hydrocortisone]
Index of immune organ (mg/g X +/− SD), Spleen (mice [1]): 2.66 ± 0.40 mg/g
Index of immune organ (mg/g X +/− SD), thymus (mice [1]): 1.37 ± 0.26 mg/g
Agglutinin (33) (HC50) (mice [2]): 126.7 +/− 19.3
Erythorcytolysin (32) (mice [2]): 37.5 +/− 4.2

O=P1(N(CCCl)CCCl)NCCCO1 (centres unmarked) [cyclo-phosphamidum, cyclophosphomide]
DNCB (extent of swolleness) (mice [3]): 12.26 +/− 8.8
